Experiments:
Experiment in all cases: biochemical
Parameters in all cases: Kinase selectivity panel, IC50 of AC484 (Supplementary Table 1)
CDK9/Cyclin K = CDK9/Cyclin K (Homo sapiens, UniProt P50750)
LYN-B = molecular target: T1, LYN-B (Homo sapiens, UniProt P07948)
T1 construct: isoform B

PDGFRB = PDGFRB (Homo sapiens, UniProt P09619)
STK16 = STK16 (Homo sapiens, UniProt O75716)
DDR1 = DDR1 (Homo sapiens, UniProt Q08345)
CSF1R = CSF1R (Homo sapiens, UniProt P07333)
TBK1 = TBK1 (Homo sapiens, UniProt Q9UHD2)
PAK4KD = molecular target: T2, PAK4KD (Homo sapiens, UniProt O96013)
T2 construct: gene PAK4; kinase domain

BRAF = BRAF (Homo sapiens, UniProt P15056)
BRAF, sequence (P15056 whole entry): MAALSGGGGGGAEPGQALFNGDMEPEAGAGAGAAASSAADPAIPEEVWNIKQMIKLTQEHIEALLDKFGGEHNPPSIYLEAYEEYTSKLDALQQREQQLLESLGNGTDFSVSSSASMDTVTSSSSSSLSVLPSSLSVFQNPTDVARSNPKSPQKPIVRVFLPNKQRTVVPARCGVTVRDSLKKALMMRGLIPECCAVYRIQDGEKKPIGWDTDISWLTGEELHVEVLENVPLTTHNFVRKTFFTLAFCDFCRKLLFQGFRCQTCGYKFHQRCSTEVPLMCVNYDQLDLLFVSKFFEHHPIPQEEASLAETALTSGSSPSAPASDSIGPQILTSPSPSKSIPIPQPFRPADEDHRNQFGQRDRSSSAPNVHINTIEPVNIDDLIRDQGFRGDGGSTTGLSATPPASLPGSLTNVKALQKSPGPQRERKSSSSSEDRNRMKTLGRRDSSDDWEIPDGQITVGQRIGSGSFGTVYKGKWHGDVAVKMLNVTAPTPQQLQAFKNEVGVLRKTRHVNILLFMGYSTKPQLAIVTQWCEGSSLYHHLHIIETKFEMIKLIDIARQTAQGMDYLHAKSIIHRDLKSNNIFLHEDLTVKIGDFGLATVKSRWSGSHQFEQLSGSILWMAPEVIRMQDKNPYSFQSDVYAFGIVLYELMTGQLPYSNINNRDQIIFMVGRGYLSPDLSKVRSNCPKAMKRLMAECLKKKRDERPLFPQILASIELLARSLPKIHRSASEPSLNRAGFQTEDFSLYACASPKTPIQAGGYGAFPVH

IRAK4 = IRAK4 (Homo sapiens, UniProt Q9NWZ3)
Dyrk1A = Dyrk1A (Homo sapiens, UniProt Q13627)
_PKCtheta = molecular target: T3, _PKCtheta (Homo sapiens, UniProt Q04759)
T3 construct: gene PRKCQ

FAK = molecular target: T4, FAK (Homo sapiens, UniProt Q05397)
T4 construct: gene PTK2

Lck = Lck (Homo sapiens, UniProt P06239)
Aurora 2 = molecular target: T5, Aurora 2 (Homo sapiens, UniProt O14965)
T5 construct: gene AURKA

CAMK2A = CAMK2A (Homo sapiens, UniProt Q9UQM7)
MAP4K2 = MAP4K2 (Homo sapiens, UniProt Q12851)
MAP3K10 = MAP3K10 (Homo sapiens, UniProt Q02779)
Blk = Blk (Homo sapiens, UniProt P51451)
MEK1 = molecular target: T6, MEK1 (Homo sapiens, UniProt Q02750)
T6 construct: gene MAP2K1
T6 sequence (Q02750 whole entry): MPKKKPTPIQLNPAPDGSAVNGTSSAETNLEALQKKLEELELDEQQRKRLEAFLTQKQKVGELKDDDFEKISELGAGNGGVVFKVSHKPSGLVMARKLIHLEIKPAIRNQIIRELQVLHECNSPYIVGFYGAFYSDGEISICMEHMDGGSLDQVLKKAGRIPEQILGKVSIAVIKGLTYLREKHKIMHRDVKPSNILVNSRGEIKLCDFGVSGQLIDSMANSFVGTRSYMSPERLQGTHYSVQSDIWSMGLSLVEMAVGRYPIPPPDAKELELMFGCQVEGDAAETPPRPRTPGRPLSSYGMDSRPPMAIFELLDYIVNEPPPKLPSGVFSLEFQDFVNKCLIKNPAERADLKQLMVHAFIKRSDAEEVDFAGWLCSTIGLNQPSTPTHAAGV

ErbB2 = ErbB2 (Homo sapiens, UniProt P04626)
ErbB2, sequence (P04626 whole entry): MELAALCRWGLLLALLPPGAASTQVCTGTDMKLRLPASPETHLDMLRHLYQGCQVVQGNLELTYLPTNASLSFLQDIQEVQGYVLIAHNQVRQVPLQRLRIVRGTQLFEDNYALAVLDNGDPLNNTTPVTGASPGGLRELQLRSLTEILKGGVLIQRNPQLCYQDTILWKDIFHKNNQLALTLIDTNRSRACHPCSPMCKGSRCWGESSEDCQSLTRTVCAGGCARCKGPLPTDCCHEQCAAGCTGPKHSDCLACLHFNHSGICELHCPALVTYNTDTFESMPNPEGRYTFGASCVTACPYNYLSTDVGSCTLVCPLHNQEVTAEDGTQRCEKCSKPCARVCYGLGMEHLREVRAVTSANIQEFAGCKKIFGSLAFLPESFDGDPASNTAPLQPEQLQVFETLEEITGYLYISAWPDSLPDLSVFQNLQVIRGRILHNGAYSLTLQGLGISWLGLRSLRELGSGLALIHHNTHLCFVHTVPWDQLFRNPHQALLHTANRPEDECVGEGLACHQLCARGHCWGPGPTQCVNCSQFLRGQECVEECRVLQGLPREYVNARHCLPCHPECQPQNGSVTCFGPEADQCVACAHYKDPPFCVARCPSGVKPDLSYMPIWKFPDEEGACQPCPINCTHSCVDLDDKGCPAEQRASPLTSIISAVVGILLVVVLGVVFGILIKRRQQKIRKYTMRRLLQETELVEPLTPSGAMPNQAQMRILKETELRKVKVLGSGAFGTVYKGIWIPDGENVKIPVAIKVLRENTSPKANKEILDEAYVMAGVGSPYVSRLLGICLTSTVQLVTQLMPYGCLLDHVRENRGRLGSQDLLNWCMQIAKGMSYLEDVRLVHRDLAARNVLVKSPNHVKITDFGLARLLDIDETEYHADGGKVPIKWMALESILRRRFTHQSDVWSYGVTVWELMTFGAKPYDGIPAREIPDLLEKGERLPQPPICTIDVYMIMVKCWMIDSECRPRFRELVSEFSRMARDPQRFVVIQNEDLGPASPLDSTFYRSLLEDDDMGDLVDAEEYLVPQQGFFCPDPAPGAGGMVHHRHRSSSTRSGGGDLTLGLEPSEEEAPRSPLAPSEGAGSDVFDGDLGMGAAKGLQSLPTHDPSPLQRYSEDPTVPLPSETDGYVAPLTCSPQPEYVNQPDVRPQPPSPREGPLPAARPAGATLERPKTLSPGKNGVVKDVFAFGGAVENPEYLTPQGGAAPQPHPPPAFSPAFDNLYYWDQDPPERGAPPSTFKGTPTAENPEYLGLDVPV

BMX = BMX (Homo sapiens, UniProt P51813)
Rsk2 = molecular target: T7, Rsk2 (Homo sapiens, UniProt P51812)
T7 construct: gene RPS6KA3

RIPK2 = RIPK2 (Homo sapiens, UniProt O43353)
JAK2 = JAK2 (Homo sapiens, UniProt O60674)
Fyn = Fyn (Homo sapiens, UniProt P06241)
Fyn, sequence (P06241 whole entry): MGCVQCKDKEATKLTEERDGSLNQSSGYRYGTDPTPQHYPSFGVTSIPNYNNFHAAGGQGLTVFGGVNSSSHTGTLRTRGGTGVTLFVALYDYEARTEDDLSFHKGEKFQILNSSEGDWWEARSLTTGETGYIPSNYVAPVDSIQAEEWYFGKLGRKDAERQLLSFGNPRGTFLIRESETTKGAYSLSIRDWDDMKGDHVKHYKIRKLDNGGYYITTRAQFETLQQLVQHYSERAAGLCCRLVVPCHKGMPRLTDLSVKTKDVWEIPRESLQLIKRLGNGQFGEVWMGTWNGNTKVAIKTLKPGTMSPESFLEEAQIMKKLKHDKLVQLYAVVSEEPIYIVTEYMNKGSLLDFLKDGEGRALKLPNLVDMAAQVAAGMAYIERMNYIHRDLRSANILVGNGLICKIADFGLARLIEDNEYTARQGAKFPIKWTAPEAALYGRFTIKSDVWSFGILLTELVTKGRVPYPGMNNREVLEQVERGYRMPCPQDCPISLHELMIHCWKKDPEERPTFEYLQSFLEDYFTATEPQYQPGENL

GRK5 = GRK5 (Homo sapiens, UniProt P34947)
GRK5, sequence (P34947 whole entry): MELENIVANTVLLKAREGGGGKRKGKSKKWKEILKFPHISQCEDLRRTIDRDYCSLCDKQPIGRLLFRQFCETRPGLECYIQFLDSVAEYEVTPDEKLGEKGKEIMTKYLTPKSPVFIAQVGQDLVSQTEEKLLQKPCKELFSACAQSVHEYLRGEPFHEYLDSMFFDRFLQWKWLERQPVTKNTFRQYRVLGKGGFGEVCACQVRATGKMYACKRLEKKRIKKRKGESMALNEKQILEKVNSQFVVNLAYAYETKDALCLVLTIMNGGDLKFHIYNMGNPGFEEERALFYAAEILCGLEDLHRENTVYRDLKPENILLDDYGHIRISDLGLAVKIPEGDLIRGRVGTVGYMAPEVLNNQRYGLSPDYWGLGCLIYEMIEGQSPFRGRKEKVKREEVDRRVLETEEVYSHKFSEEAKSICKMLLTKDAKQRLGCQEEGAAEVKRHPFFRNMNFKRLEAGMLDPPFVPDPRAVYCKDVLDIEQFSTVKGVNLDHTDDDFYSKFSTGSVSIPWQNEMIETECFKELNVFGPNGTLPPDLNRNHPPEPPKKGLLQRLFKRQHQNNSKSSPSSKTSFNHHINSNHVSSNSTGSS

RET = RET (Homo sapiens, UniProt P07949)
IGF1R = IGF1R (Homo sapiens, UniProt P08069)

Measured: IC50

PDGFRB, sequence (P09619 whole entry): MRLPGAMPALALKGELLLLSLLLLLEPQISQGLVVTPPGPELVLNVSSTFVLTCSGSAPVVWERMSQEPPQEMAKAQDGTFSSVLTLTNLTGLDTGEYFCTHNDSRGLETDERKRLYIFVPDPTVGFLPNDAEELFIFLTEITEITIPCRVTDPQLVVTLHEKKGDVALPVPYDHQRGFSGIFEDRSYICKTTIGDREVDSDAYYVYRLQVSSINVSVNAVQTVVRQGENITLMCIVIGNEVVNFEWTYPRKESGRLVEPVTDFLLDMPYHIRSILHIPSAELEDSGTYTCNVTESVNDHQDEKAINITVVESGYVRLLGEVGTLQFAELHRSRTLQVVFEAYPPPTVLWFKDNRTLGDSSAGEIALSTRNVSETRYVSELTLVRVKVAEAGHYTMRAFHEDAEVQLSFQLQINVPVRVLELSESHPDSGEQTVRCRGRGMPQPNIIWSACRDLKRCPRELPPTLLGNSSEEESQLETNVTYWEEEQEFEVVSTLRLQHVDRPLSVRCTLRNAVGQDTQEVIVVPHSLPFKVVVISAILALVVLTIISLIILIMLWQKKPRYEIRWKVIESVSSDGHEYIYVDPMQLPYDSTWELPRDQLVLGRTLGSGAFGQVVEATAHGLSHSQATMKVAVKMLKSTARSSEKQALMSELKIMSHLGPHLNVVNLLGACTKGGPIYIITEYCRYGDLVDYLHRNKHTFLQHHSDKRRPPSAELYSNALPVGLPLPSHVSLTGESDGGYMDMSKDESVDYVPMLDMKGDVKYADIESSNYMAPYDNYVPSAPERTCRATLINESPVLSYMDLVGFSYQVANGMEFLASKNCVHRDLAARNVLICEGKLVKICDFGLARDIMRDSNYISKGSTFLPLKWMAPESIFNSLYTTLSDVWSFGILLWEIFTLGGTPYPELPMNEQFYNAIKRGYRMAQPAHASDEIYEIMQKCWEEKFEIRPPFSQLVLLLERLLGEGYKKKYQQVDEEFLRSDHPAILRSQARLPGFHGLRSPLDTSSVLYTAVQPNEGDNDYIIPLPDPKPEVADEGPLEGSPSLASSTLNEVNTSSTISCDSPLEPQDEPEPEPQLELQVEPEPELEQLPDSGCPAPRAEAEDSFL
STK16, sequence (O75716 whole entry): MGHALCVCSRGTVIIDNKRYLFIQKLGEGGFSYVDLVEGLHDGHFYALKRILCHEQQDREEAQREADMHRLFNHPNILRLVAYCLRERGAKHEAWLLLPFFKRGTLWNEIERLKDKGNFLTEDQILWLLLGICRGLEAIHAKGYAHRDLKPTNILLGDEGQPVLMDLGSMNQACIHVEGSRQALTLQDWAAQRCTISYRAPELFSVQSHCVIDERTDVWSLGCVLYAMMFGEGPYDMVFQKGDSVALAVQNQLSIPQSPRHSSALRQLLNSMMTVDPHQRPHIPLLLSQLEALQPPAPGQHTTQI

CC(C)CCN[C@@H]1CCc2cc(O)c(N3CC(=O)NS3(=O)=O)c(F)c2C1 [AC484, ABBV-CLS-484]
> 10 µM: all assays above

Source: article PMC10599993, “The PTPN2/PTPN1 inhibitor ABBV-CLS-484 unleashes potent anti-tumour immunity” (Nature, 2023)
